What all share (experiment): inhibition of tumour cell growth, NCI panel, 48 h
Assay [1] has as its system M14 melanoma.
The test system of assay [2] is SR leukemia.
Assay [3] relates to SK-OV-3 ovarian.
Assay [4] deals with HCT-116 colon.
In assay [5] the test system is NCI-H23 lung.
Assay [6] concerns U251 CNS.
In assay [7] the test system is OVCAR-3 ovarian.
Assay [8] concerns EKVX NSCLC.
For assay [9], the system named is RXF 393 renal.
Assay [10] concerns SNB-75 CNS.
For assay [11], the system named is HOP-92 NSCLC.
For assay [12], the system named is RPMI-8226 leukemia.
In assay [13] the test system is TK-10 renal.
Assay [14] has as its system NCI-H522 lung.
For assay [15], the system named is HOP-62 NSCLC.
Assay [16] deals with OVCAR-4 ovarian.
In assay [17] the test system is NCI/ADR-RES ovarian.
The test system of assay [18] is LOX IMVI melanoma.
Assay [19] has as its system HCC-2998 colon.
Assay [20] deals with PC-3 prostate.

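Method: 48-hour compound exposure of cells in 96-well plates, five concentrations, linear interpolation of endpoints. The concentration for full growth arrest is given as TGI.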

Turning to `COC1=CC(=O)c2ccccc2C1(C)C1=NC(C)(C)CO1` (stereo not given), the TGI in assay [1], in assay [2], in assay [3], in assay [4], in assay [5] and in assay [6] was over 100 µM in each case. Also, the TGI in assay [7], in assay [8], in assay [9], in assay [10], in assay [11] and in assay [12] was over 100 µM in each case. Also, the TGI in [13], in assay [14], in assay [15] and in assay [16] was over 100 µM each time.
Turning to `CC1(C)O[C@@H](CP(c2ccccc2)c2ccccc2)[C@H](CP(c2ccccc2)c2ccccc2)O1`, the TGI in [1] was 22.7 µM; in [3], over 100 µM; in assay [4] it was 20.9 µM; in assay [5] it was 14.6 µM; in assay [6], 20.2 µM; in assay [7] it was 33.6 µM. The TGI in assay [17] is 36 µM; in assay [8] it was 29.4 µM; in [9], 26.9 µM; in [10], 27.9 µM; in [11], 27.1 µM; in [12], 59.1 µM. Also, the TGI in [13] was 87 µM; in assay [14] it was 12.8 µM; in assay [15], 44.6 µM; in [16] it was over 100 µM; in assay [18], 17.4 µM.
On to `NC(=O)C(=CN1CC(=O)NC1=S)C(N)=O`, for which the TGI in assay [1], in [3], in assay [4], in assay [19], in assay [5] and in [6] was over 100 µM in each case. Further, the TGI in assay [7], in [17], in [8], in assay [9], in assay [10] and in assay [11] was over 100 µM each time. Further, the TGI in [13], in assay [15], in assay [16] and in assay [18] was over 100 µM each time.
For `CC1=NN(c2ccccc2)C(=O)C1=C1SCCCS1`, the TGI in assay [1] is over 100 µM; in assay [2], 34.5 µM; in assay [3] it was over 100 µM; in [4], 31.7 µM; in assay [19], over 100 µM; in [5], over 100 µM. Moreover, the TGI in [6] was 37.4 µM; in assay [7], 70.7 µM; in assay [8] it was 88.4 µM; in assay [9], 60.7 µM; in assay [10], over 100 µM; in assay [11] it was 64 µM. Besides, the TGI in [12] was 46.1 µM; in assay [13], over 100 µM; in [14] it was 37.5 µM; in assay [15], over 100 µM; in assay [18] it was 55.8 µM.
`COC(=O)/C(=C\C(=O)c1ccc(Br)cc1)NN=C(c1ccccc1)c1ccccc1`: the TGI in assay [1], in [2], in assay [3], in assay [19], in assay [5] and in assay [8] was over 10 µM throughout. The TGI in assay [9], in assay [10], in [11], in [12], in assay [13] and in assay [20] was over 10 µM each time. Further, the TGI in assay [15], in [16] and in assay [18] was over 10 µM in each case.
On to `O=C(O)Cc1ccc2c(c1O)C(=O)c1c(ccc(CC(=O)O)c1O)C2=O`, for which the TGI in assay [1], in [2], in assay [3], in assay [4], in assay [19] and in assay [5] was over 100 µM in each case. Also, the TGI in [6], in assay [7], in assay [8], in assay [10], in assay [11] and in assay [12] was over 100 µM throughout. Further, the TGI in assay [13], in assay [14], in assay [15], in assay [16] and in assay [18] was over 100 µM throughout.
For the compound `CCCCCn1cnc2c1S(=O)(=O)N(C)C(NC(=O)c1ccccc1)=N2`, the TGI in [2], in assay [3], in assay [4], in assay [19], in assay [5] and in assay [6] was over 100 µM throughout. Further, the TGI in [7], in assay [8], in assay [10], in [11], in [12] and in [13] was over 100 µM throughout. Further, the TGI in assay [14], in assay [15], in [16] and in assay [18] was over 100 µM throughout.
For `COc1ccc(/C(Cl)=C/c2ccc(Cl)c(Cl)c2)cc1`, the TGI in assay [1] is over 100 µM; in assay [2] it was 47.9 µM; in [3], over 100 µM; in assay [4], 80.3 µM; in [19], 43.2 µM; in assay [5], 63 µM. Moreover, the TGI in assay [6] came to 50.4 µM; in assay [8] it was 61.8 µM; in [9], 33.6 µM; in [10], 99.7 µM; in assay [11], 78.7 µM; in assay [12] it was 53.9 µM. Besides, the values for the TGI in [14], in [15] and in assay [16] were 41.1 µM, 79 µM and over 100 µM, respectively.
For `Cn1c2c(cc(-c3ccccc3)c1=O)COc1ccccc1-2`, the TGI in [1] is 94.4 µM; in [2] it was over 100 µM; in [3] it was 86.8 µM; in assay [4] it was 37.9 µM; in assay [19], over 100 µM; in assay [5] it was over 100 µM. The TGI in [6], in assay [7], in [8], in [9], in assay [10] and in assay [11] was over 100 µM throughout. The TGI in assay [12] is 42.1 µM; in [14] it was 52.3 µM; in assay [15], over 100 µM; in assay [16], over 100 µM; in assay [18], 31.3 µM.
As for `CO[C@H](c1ccccc1)[C@H](C)N(C)c1ccc2ccccc2c1C1=NC(C)(C)CO1`, the TGI in assay [1] is 33.6 µM; in assay [2], 50.1 µM; in assay [3], 33.3 µM; in [4], 34.6 µM; in [5], 31 µM; in assay [6] it was 30.5 µM. The TGI came to 30.7 µM in assay [7]; 44.2 µM in assay [8]; 27.6 µM in assay [9]; 32.4 µM in [10]; 30.6 µM in assay [11]; 53.2 µM in assay [12]. For the same compound, the TGI worked out at 61.8 µM in [13], 19.4 µM in assay [14] and 36 µM in assay [15].
For `COC(=O)/C(=N\O)C(C(=O)C=C(C)C)C(=O)C(=O)Nc1ccccc1C` (stereo not given), the TGI in [1], in assay [2], in assay [3], in assay [4], in [19] and in assay [5] was over 100 µM each time. Moreover, the TGI in assay [6], in [7], in assay [8], in assay [9], in assay [10] and in assay [11] was over 100 µM each time. Also, the TGI in assay [12], in [13], in [14], in assay [15], in assay [16] and in assay [18] was over 100 µM throughout.
As for `COc1cccc(-c2cc(=O)c3cccnc3[nH]2)c1`, the TGI in assay [1], in [3], in assay [4], in assay [6], in assay [7] and in assay [8] was over 100 µM throughout. Besides, the TGI in assay [9], in assay [10], in assay [11], in assay [12], in [13] and in assay [14] was over 100 µM each time. The TGI in assay [20], in [15], in assay [16] and in assay [18] was over 100 µM throughout.
As for `COCC12CC(CC1=O)C1C2ON2c3ccccc3C(=O)C12c1ccccc1` (stereo not given), the TGI in assay [1], in [2], in assay [3], in assay [4], in assay [19] and in assay [5] was over 100 µM each time. In addition, the TGI in [6], in [8], in assay [9], in assay [10], in assay [11] and in assay [12] was over 100 µM in each case. The TGI in [14], in assay [15] and in [16] was over 100 µM each time.

The values are drawn from PubChem BioAssay (NCI).
